We go through 20 compounds from patent US20040198743A1 (Schering Corporation, priority 2003, published 2004).

Molecules are shown by their SMILES. “And” between values parts separate entries of the source, which are not always exact repeats. Equal entries are not always repeated.

For assay [1], the target named is T1, Histamine Receptor H3 (Homo sapiens, UniProt Q9Y5N1).
T1 construct: expressed in transfected cells; host or cells: HEK293
Kind of assay: Membrane binding assay, [3H]-N'-methylhistamine for H3 binding. The method, then: (§1) Materials. Rat and guinea-pig brains were obtained frozen from Rockland Immunochemicals (Gilbertsville, Pa.). Cell lines expressing recombinant human receptors were generated by using standard transfection techniques. The following radioligands were obtained from Dupont NEN (Boston, Mass.): [^3H]-pyrilamine, 23 Ci/mmol for H 1 binding and [^3H]-N′-methylhistamine, 82 Ci/mmol for H3 binding.
(§2) Methods. Recombinant cell lines (i.e., human H1—CHO cells and human H3-HEK293) were cultured in Dulbecco's modified Eagle's medium/10% fetal bovine serum supplemented with 2 mM glutamine, penicillin (100 U/ml), and streptomycin (100 μg/ml) in a humidified 5% CO2 atmosphere at 37° C. Selection was maintained with 0.5 mg geneticin/ml. Cells were harvested for membrane preparation by aspirating media, replacing it with Hanks' balanced salt solution/5 mM EDTA, and incubating flasks for 10 minutes at 37° C. Cells were pelleted by centrifugation at 1000×g for ten minutes at 4° C.
(§3) Membrane preparation. Membranes were prepared by disrupting cells or tissue in at least ten volumes of ice-cold 50 mM Tris-HCl, pH 7.5 at 25° C., with a Polytron. Homogenates were centrifuged ten minutes at 1000×g and the supernatants were then centrifuged for ten minutes at 50,000×g. Pellets from this centrifugation step were resuspended with a Polytron, a sample was taken for protein determination (BCA; Pierce; Rockford, Ill.), and the resuspension was again centrifuged at 50,000×g. Brain membranes were stored as pellets, cell membranes as suspensions of 1 mg protein/ml Tris buffer at −20° C.
(§4) Binding assays. […] Nonspecific binding was determined in the presence of 10^−6 M chlorpheniramine for H1 binding or 10^−6 M clobenpropit for H3 binding. Assay mixtures were incubated for 30 minutes at 30° C. in polypropylene, 96-well, deep-well plates then filtered through 0.3% polyethylenimine-soaked GF/B filters. These were washed three times with 1.2 ml of Tris buffer, dried in a microwave oven, impregnated with Meltilex wax scintillant and counted at 40% efficiency in a Betaplate scintillation counter (Wallac). IC50 values were determined by interpolation or by nonlinear, least-squares, curve-fitting with the Prism program (GraphPad Software). Ki values were determined in the manner of Cheng and prusoff (Cheng, et al., (1973) Biochem. Pharm. 22:3099-3108).

The target in assay [2] is T2, Histamine Receptor H1 (Homo sapiens, UniProt P35367).
T2 construct: expressed in transfected cells; host or cells: CHO
T2 sequence (P35367 whole entry): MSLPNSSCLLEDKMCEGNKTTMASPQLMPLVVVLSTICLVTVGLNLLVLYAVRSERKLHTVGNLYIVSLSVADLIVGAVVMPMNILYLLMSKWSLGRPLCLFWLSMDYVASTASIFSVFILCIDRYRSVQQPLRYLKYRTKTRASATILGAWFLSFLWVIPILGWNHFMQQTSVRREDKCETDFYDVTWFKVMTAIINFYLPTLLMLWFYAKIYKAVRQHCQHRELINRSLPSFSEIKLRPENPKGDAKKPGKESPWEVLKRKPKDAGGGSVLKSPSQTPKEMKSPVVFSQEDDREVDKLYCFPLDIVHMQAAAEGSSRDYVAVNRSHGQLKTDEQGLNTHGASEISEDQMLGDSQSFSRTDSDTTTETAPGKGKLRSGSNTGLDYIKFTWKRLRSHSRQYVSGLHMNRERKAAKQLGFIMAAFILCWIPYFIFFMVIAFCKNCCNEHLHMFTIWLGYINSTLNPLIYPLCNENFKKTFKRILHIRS
Kind of assay: Membrane binding assay, [3H]-pyrilamine for H1 binding. The procedure:
as §1, §2, §3, §4

Assay [3] has as its system cutaneous microvascular permeability produced by compound 48/80. Kind of assay: Cutaneous microvascular permeability (Evans blue extravasation) elicited by intradermal compound 48/80. It counts as in vivo, guinea pig. Particulars: for effect on baseline Evans blue leakage (dye leakage due to i.d. saline administration): CTM 1.0 mg/kg, THIO 1.0 mg/kg, CLOB 0.3 mg/kg, i.v.; for % Inhibition of Compound 48/80 Skin Responses: treatment i.v. 10 minutes before, each drug 1 mg/kg in Table 3, mean ± SEM; for effect of H3 antagonist alone on cutaneous permeability elicited by compound 48/80: THIO 1.0 mg/kg i.v., CLOB 0.3 mg/kg i.v., given alone.

T1 sequence (Q9Y5N1 whole entry): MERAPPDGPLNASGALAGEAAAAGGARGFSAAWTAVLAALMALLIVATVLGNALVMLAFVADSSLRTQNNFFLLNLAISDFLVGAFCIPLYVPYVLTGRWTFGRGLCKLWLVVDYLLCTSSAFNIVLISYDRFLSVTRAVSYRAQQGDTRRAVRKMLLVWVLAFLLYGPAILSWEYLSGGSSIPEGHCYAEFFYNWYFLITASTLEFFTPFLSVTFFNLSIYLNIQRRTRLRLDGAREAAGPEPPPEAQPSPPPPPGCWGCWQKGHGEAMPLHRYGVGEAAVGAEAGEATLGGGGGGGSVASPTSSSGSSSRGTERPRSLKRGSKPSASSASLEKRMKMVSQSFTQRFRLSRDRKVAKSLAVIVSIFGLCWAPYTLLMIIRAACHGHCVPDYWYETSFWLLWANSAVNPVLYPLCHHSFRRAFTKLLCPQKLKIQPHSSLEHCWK

Compound `CC(C)(C)CCC#C[C@@H]1C[C@H]1c1c[nH]cn1` [Formula 19] showed a Ki in assay [1] of 3 nM. With `Clc1ccc(C(CCNCCCCc2c[nH]cn2)c2ccccn2)cc1` (stereo not shown) [Formula 28], the inhibition constant Ki in assay [2] is 310 nM; in assay [1] it was 10 nM. For `Clc1ccc(C(=C2CCN(CCCCCc3c[nH]cn3)CC2)c2ccccn2)cc1` [Formula 29] the same measures were 5 nM and 8 nM.

As to `CN(C)CCC(c1ccc(Cl)cc1)c1ccccn1` (stereo not shown) [CTM, chlorpheniramine], in assay [3], the “effect on baseline Evans blue leakage (dye leakage due to i.d. saline administration)” value (from here on “effect on baseline Evans blue leakage”) is on record as “Neither CTM (1.0 mg/kg, i.v.), THIO (1.0 mg/kg, i.v.) nor CLOB (0.3 mg/kg, i.v.) had any effect”. Moreover, the “% Inhibition of Compound 48/80 Skin Responses” value in assay [3] (cpd 48/80 0.0003% i.d.) is 17%±4% and 17.3 ± 3.6%; in assay [3] (cpd 48/80 0.001% i.d.), 31%±4% and 31.5 ± 3.7 %; in assay [3] (cpd 48/80 0.003% i.d.), 32%±4% and 31.8 ± 3.8 %; in assay [3] (cpd 48/80 0.01% i.d.) it was 37%±4% and 36.7 ± 3.8 %. Regarding `O=S(=O)(c1ccc(Cl)cc1)N1CCC(CCc2c[nH]cn2)C1` (stereo not shown) [Formula 21], the inhibition constant (Ki) in assay [2] was 660 nM; in assay [1], 6 nM. On to `O=C(CCN1CCC(Cc2c[nH]cn2)CC1)NCCc1ccc(Cl)cc1` [Formula 23], for which, in assay [1], the affinity corresponds to a Ki of 0.7 nM. As for `NC(=NCc1ccc(Cl)cc1)SCCCc1cnc[nH]1` [Clobenpropit, clobenpropit], the “effect on baseline Evans blue leakage” value in assay [3] was “Neither CTM (1.0 mg/kg, i.v.), THIO (1.0 mg/kg, i.v.) nor CLOB (0.3 mg/kg, i.v.) had any effect”. The figures for the “effect of H3 antagonist alone on cutaneous permeability elicited by compound 48/80” value in assay [3] (listed as CLOB) and in assay [3] (listed as clobenpropit) were “no observable effect” and “does not alter”, respectively. The compound `O=C(/C=C/c1ccc(Cc2c[nH]cn2)cc1)NCCc1ccc(Cl)cc1` [Formula 33] displayed an inhibition constant Ki in assay [1] of 7 nM. That is a single-digit nanomolar value. With `c1nc(CC2CCN(CCCOc3ccc(CN4CCCCC4)cc3)CC2)c[nH]1` [Formula 22], the Ki in assay [2] worked out at 29 nM; in assay [1] it was 3 nM. On the same counts, the results for `O=C(CCN1CCC(Cc2c[nH]cn2)CC1)Nc1cccc(Cl)c1` [Formula 20] are 330 nM and 0.8 nM.

In assay [1], `O=C(c1ccccn1)N1CCC(Cc2c[nH]cn2)CC1` [Formula 18] yielded a Ki of 2 nM. With `S=C(NC1CCCCC1)N1CCC(c2cnc[nH]2)CC1` [Thioperamide, thioperamide], the “effect on baseline Evans blue leakage” value in assay [3] is on record as “Neither CTM (1.0 mg/kg, i.v.), THIO (1.0 mg/kg, i.v.) nor CLOB (0.3 mg/kg, i.v.) had any effect”. The “effect of H3 antagonist alone on cutaneous permeability elicited by compound 48/80” value in assay [3] (listed as THIO) is reported as “no observable effect”; in assay [3] (listed as thioperamide), “does not alter”. As to `CC(C)(C)c1ccc(S(=O)(=O)NCCCCc2c[nH]cn2)cc1` [Formula 30], the Ki in assay [1] came out at 17 nM. That is a double-digit nanomolar value. On the same count and under the same terms, under `C/C(=C\C(=O)Nc1ccc(Cl)cc1)c1ccc(Cc2c[nH]cn2)cc1` [Formula 31] stands 470 nM.

For the compound `Clc1ccc(C(=C2CCN(CCCCc3c[nH]cn3)CC2)c2ccccn2)cc1` [Formula 26], the Ki is 2 nM in assay [2] and 3 nM in assay [1]. `c1ccc2c(c1)C1CC(CNCCCCc3c[nH]cn3)C2c2ccccc21` (stereo not shown) [Formula 27] yielded a Ki in assay [1] of 19 nM. In other words, the double-digit nanomolar range. Compound `CN1CCC(N(C)Cc2ccc(OCCCN3CCC(Cc4c[nH]cn4)CC3)cc2)CC1` [Formula 25] yielded an inhibition constant (Ki) in assay [1] of 4 nM.

As for `O=C(NCc1ccc(Cc2c[nH]cn2)cc1)Nc1cc(Cl)cc(Cl)c1` [Formula 24], the affinity in assay [1], expressed as Ki, was 15 nM. The compound `O=C(NCCCCc1c[nH]cn1)C1(c2ccc(Cl)cc2)CCC1` [Formula 32] gave a Ki in assay [1] of 19 nM.

Consider `O=C(c1cnc2ccccc2c1)N1CCC(Cc2c[nH]cn2)CC1` [Formula 17], for which the affinity in assay [1], expressed as Ki, was 55 nM.

The Ki is the equilibrium dissociation constant of an inhibitor or competing ligand from its target. Lower therefore signals higher affinity.
